Test system: RNA isoforms in PNN 1-46 SMA type I patient-derived fibroblasts
Assay: RNA Abundance Modulation (RNA isoform abundance, iFPM, HiSeq RNA sequencing)
Assay type: cell-based, human
Details: 24 hrs, PNN 1-46 fibroblasts
Method: Cells from a cell line of interest are cultured in conditions sufficient to yield the number of cells capable of generating enough RNA for subsequent sequencing steps. Cells from the tested cell line are contacted with a compound described herein.
To culture said cells, they are seeded, at appropriate concentrations in a volume of media in a cell culture container and incubated for 4, 5, 6, 7, 8, 9, 10, or more hours. A concentrated solution of compound in a vehicle (e.g., DMSO) is then added in sufficient volume to result in the intended final concentration of the compound, for example 100 nM, 500 nM, 1 μM, 5 μM, 10 μM, 15 μM, 20 μM, or more. The cells may also be treated with vehicle alone, as a control. A number of replicates of each concentration or control may be made (e.g., 2 replicates). The cells are then incubated at a constant temperature appropriate for cell culture of the particular cell line (e.g., 37° C.) for 6, 12, 18, 24, 48, or more hours. After incubation, the growth medium is removed and the cells are washed with the appropriate buffer (e.g., PBS). Cells are then removed from adherence to the cell culture container by treatment with a solution containing trypsin, and the trypsin subsequently quenched with the appropriate volume of buffer (e.g., DMEM-FBS). The cells are then pelleted with gentle centrifugation (e.g., ≤90×g centrifugal force) and resuspended in a buffer to lyse the cells for extraction of RNA. The cell lysates may then be frozen (e.g., at −80° C.) or, alternately, may immediately be used in a procedure to purify the RNA (e.g. by use of the RNEASY PLUS® minikit). The RNA from cell lysates is eluted in the appropriate volume of buffer (e.g., RNEASE-FREE H2O®). The resulting purified RNA may then be sequenced (e.g., using RNASeq) or analyzed using a human exon array (e.g., by GENECHIP® human exon array) to determine changes in the RNA levels in those cells treated with compound compared to those cells treated only with DMSO. The purified RNA may also be quantified by other methods known in the art.
Using the RNA data obtained from sequencing, exon array, or other methods, a statistical analysis can reveal changes in the RNA levels of compound-treated compared with control. For example, t-test p-values may be calculated for the data obtained through sequencing and exon array methods in order to compare compound-treated cells to those treated with the DMSO control. […] Analysis of the sequencing and exon array data may then also yield predictions about the cause of the aberrant amount of an RNA transcript in the cells (e.g., perturbation of RNA splicing, RNA transcription, or RNA stability). These predictions may be further confirmed by methods known in the art. For example, RT-PCR and RT-qPCR may be used to confirm the change in amount of RNA transcripts for one or more particular transcripts of interest.
Following the methods described above in Example 1, PNN 1-46 SMA type I patient-derived fibroblasts were treated with 300 nM or 3 μM Compounds 774 and 808 in 0.5% DMSO.
700,000 cells were seeded in 10 mL of medium (DMEM plus 10% FBS) in a T-75 flask. Cells were allowed to attach for at least 4 hrs, after which 50 μL of a 200× compound solution (100% DMSO) was added to each well, and the plate was incubated at 37° C. for 24 hrs.
At the end of the incubation period, the supernatant was removed and the cells where washed with PBS. TrypLE (Invitrogen) express solution was added (e.g. 1.5 mL per one T75 flask). The flasks were incubated for 3 to 5 min at 37° C. The trypsin was then quenched, e.g., by adding 10 mL DMEM-FBS.
Next, the cells were pelleted using gentle centrifugation without exceeding 90×g centrifugal force. The supernatant was removed and the cell pellet was re-suspended in 600 μL RLT buffer (the RLT buffer was supplemented with beta-mercaptoethanol according to the RNeasy protocol manual) by pipetting up and down until the pellet was completely dissolved […]

## Cc1cn2cc(-c3cc(=O)n4cc(N5CCN(C)CC5)ccc4n3)cc(C)c2n1 [Compound 808]
0.3 μM
  RNA abundance modulation (effect on isoform fold increase): modulates RNA abundance
3 μM
  RNA abundance modulation (effect on isoform fold increase): modulates RNA abundance

From patent US10688099B2, “Methods for modulating the amount of RNA transcripts” (PTC Therapeutics, Inc., priority 2013, dated 2020)
